{"source": "ChEMBL document CHEMBL1201862", "about": "“PubChem BioAssay data set” (2004)", "assay_in_all_cases": "inhibition of tumour cell growth, NCI panel, 48 h", "key": {"786-0": {"tested_on": "786-0"}, "A498": {"tested_on": "A498"}, "A549": {"tested_on": "A549"}, "ACHN": {"tested_on": "ACHN"}, "CAKI-1": {"tested_on": "CAKI-1"}, "CCRF-CEM": {"tested_on": "CCRF-CEM"}, "COLO 205": {"tested_on": "COLO 205"}, "DLD-1": {"tested_on": "DLD-1"}, "DMS-273": {"tested_on": "DMS-273"}, "EKVX": {"tested_on": "EKVX"}, "HCC 2998": {"tested_on": "HCC 2998"}, "HCT-116": {"tested_on": "HCT-116"}, "HL-60": {"tested_on": "HL-60"}, "HOP-18": {"tested_on": "HOP-18"}, "HOP-62": {"tested_on": "HOP-62"}, "HT-29": {"tested_on": "HT-29"}, "K562": {"tested_on": "K562"}, "KM-20L2": {"tested_on": "KM-20L2"}, "KM12": {"tested_on": "KM12"}, "LOX IMVI": {"tested_on": "LOX IMVI"}, "LXFL 529": {"tested_on": "LXFL 529"}, "M14": {"tested_on": "M14"}, "M19-MEL": {"tested_on": "M19-MEL"}, "Malme-3M": {"tested_on": "Malme-3M"}, "NCI-H226": {"tested_on": "NCI-H226"}, "NCI-H23": {"tested_on": "NCI-H23"}, "NCI-H460": {"tested_on": "NCI-H460"}, "NCI-H522": {"tested_on": "NCI-H522"}, "OVCAR-3": {"tested_on": "OVCAR-3"}, "OVCAR-4": {"tested_on": "OVCAR-4"}, "OVCAR-5": {"tested_on": "OVCAR-5"}, "OVCAR-8": {"tested_on": "OVCAR-8"}, "RPMI-8226": {"tested_on": "RPMI-8226"}, "RXF 393": {"tested_on": "RXF 393"}, "SF-268": {"tested_on": "SF-268"}, "SF-295": {"tested_on": "SF-295"}, "SF-539": {"tested_on": "SF-539"}, "SK-MEL-28": {"tested_on": "SK-MEL-28"}, "SK-MEL-5": {"tested_on": "SK-MEL-5"}, "SK-OV-3": {"tested_on": "SK-OV-3"}, "SN12C": {"tested_on": "SN12C"}, "SNB-19": {"tested_on": "SNB-19"}, "SNB-75": {"tested_on": "SNB-75"}, "SNB-78": {"tested_on": "SNB-78"}, "TK-10": {"tested_on": "TK-10"}, "U-251": {"tested_on": "U-251"}, "UACC-257": {"tested_on": "UACC-257"}, "UACC-62": {"tested_on": "UACC-62"}, "UO-31": {"tested_on": "UO-31"}, "XF498": {"tested_on": "XF498"}}, "note": "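Interpolation was linear, between the two tested concentrations surrounding the appropriate level; five concentrations were tested over 48 hours in 96-well plates. GI50 marks 50% less growth.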 Calls of active or inactive are those of the source. Cut-off read from the data, not from the text of the source: active = GI50 up to about 1.1 µM and inactive = higher."}
{"smiles": "CCOc1ccc(O)cc1[P+](c1ccccc1)(c1ccccc1)c1ccccc1", "values": [{"measurement": "GI50", "setting": "786-0", "value": "7.24 µM (inactive)"}, {"measurement": "GI50", "setting": "A498", "value": "11.7 µM (inactive)"}, {"measurement": "GI50", "setting": "A549", "value": "4.69 µM (inactive)"}, {"measurement": "GI50", "setting": "ACHN", "value": "16.2 µM (inactive)"}, {"measurement": "GI50", "setting": "CAKI-1", "value": "8.24 µM (inactive)"}, {"measurement": "GI50", "setting": "CCRF-CEM", "value": "1.56 µM (inactive)"}, {"measurement": "GI50", "setting": "COLO 205", "value": "2.86 µM (inactive)"}, {"measurement": "GI50", "setting": "DLD-1", "value": "4.14 µM (inactive)"}, {"measurement": "GI50", "setting": "DMS-273", "value": "2.16 µM (inactive)"}, {"measurement": "GI50", "setting": "EKVX", "value": "11.5 µM (inactive)"}, {"measurement": "GI50", "setting": "HCC 2998", "value": "2.82 µM (inactive)"}, {"measurement": "GI50", "setting": "HCT-116", "value": "2.19 µM (inactive)"}, {"measurement": "GI50", "setting": "HL-60", "value": "0.501 µM (active)"}, {"measurement": "GI50", "setting": "HOP-18", "value": "2.91 µM (inactive)"}, {"measurement": "GI50", "setting": "HOP-62", "value": "8.41 µM (inactive)"}, {"measurement": "GI50", "setting": "HT-29", "value": "2.85 µM (inactive)"}, {"measurement": "GI50", "setting": "K562", "value": "1.49 µM (inactive)"}, {"measurement": "GI50", "setting": "KM-20L2", "value": "2.46 µM (inactive)"}, {"measurement": "GI50", "setting": "KM12", "value": "1.64 µM (inactive)"}, {"measurement": "GI50", "setting": "LOX IMVI", "value": "2.59 µM (inactive)"}, {"measurement": "GI50", "setting": "LXFL 529", "value": "1.37 µM (inactive)"}, {"measurement": "GI50", "setting": "M14", "value": "4.45 µM (inactive)"}, {"measurement": "GI50", "setting": "M19-MEL", "value": "3.05 µM (inactive)"}, {"measurement": "GI50", "setting": "Malme-3M", "value": "3.65 µM (inactive)"}, {"measurement": "GI50", "setting": "NCI-H226", "value": "1.64 µM (inactive)"}, {"measurement": "GI50", "setting": "NCI-H23", "value": "1.67 µM (inactive)"}, {"measurement": "GI50", "setting": "NCI-H460", "value": "3.24 µM (inactive)"}, {"measurement": "GI50", "setting": "NCI-H522", "value": "1.14 µM (inactive)"}, {"measurement": "GI50", "setting": "OVCAR-3", "value": "0.804 µM (active)"}, {"measurement": "GI50", "setting": "OVCAR-4", "value": "6.22 µM (inactive)"}, {"measurement": "GI50", "setting": "OVCAR-5", "value": "2.66 µM (inactive)"}, {"measurement": "GI50", "setting": "OVCAR-8", "value": "3.42 µM (inactive)"}, {"measurement": "GI50", "setting": "RPMI-8226", "value": "3.5 µM (inactive)"}, {"measurement": "GI50", "setting": "RXF 393", "value": "3.59 µM (inactive)"}, {"measurement": "GI50", "setting": "SF-268", "value": "5.2 µM (inactive)"}, {"measurement": "GI50", "setting": "SF-295", "value": "4.5 µM (inactive)"}, {"measurement": "GI50", "setting": "SF-539", "value": "3.83 µM (inactive)"}, {"measurement": "GI50", "setting": "SK-MEL-28", "value": "4.47 µM (inactive)"}, {"measurement": "GI50", "setting": "SK-MEL-5", "value": "1.66 µM (inactive)"}, {"measurement": "GI50", "setting": "SK-OV-3", "value": "6.53 µM (inactive)"}, {"measurement": "GI50", "setting": "SN12C", "value": "3.13 µM (inactive)"}, {"measurement": "GI50", "setting": "SNB-19", "value": "3.33 µM (inactive)"}, {"measurement": "GI50", "setting": "SNB-75", "value": "4.5 µM (inactive)"}, {"measurement": "GI50", "setting": "SNB-78", "value": "4.15 µM (inactive)"}, {"measurement": "GI50", "setting": "TK-10", "value": "3.43 µM (inactive)"}, {"measurement": "GI50", "setting": "U-251", "value": "2.54 µM (inactive)"}, {"measurement": "GI50", "setting": "UACC-257", "value": "0.647 µM (active)"}, {"measurement": "GI50", "setting": "UACC-62", "value": "3.79 µM (inactive)"}, {"measurement": "GI50", "setting": "UO-31", "value": "17.4 µM (inactive)"}, {"measurement": "GI50", "setting": "XF498", "value": "1.16 µM (inactive)"}]}
